According to publication PMC4117768, “Conjugation with polyamines enhances the antibacterial and anticancer activity of chloramphenicol” (Nucleic Acids Research, 2014):
Where two headings read alike, the source gives them in different places. Marks after values point to notes of the source that are not given here.

What was measured:
[1] = test system: complex C (poly(U)-programmed ribosomes from E. coli bearing Ac[3H]Phe-tRNA at the P-site), peptidyl transferase; assay: Inhibition of AcPhe-puromycin synthesis (puromycin reaction, peptide bond formation); type: biochemical; conditions: for Ki: 25°C, buffer A; for koff: isomerization C*I to CI, non linear regression fitting; for potency relative to CAM, based on Kik7/(k6 + k7): overall two-step inhibition of the puromycin reaction
Method: Isolation of 70S ribosomes from E. coli K12 cells and preparation of Ac[^3H]Phe-tRNA^Phe charged to 80% were performed, as described previously ([23]). The post-translocation complex of poly(U)-programmed ribosomes (complex C), bearing tRNA^Phe at the E-site and Ac[^3H]Phe-tRNA at the P-site was prepared in buffer A (100 mM Tris-HCl pH 7.2, 6 mM (CH3COO)2Mg, 100 mM NH4Cl and 6 mM 2-mercaptoethanol). The percentage of active ribosomes in AcPhe-tRNA binding was 72%. This ribosomal population was more than 90% reactive toward puromycin.
The reaction between complex C and excess puromycin (S), a pseudo-substrate which binds to the ribosomal A-site, was performed at 25°C in buffer A and analyzed as described in detail elsewhere ([11]). Briefly, since the reaction followed first-order kinetics, the first-order rate constant kobs at each concentration of puromycin was determined by fitting the corrected x-values into Equation ([1]), (1) where x is the product Ac[^3H]Phe-puromycin expressed as the percentage of complex C radioactivity added in the reaction mixture and t the time of the reaction. kobs is related to the puromycin concentration, [S], by the relationship, (2) where kcat is the catalytic rate constant of PTase and KS the affinity constant of puromycin for complex C.
In the presence of CAM–polyamine conjugates, biphasic logarithmic time plots were obtained. The slope of the straight line through the origin was taken as the value of the apparent rate constant, kobs(early), at the early phase of the reaction, while the slope of the second straight line was taken as the value of the rate constant, kobs(late), at the late phase of the reaction.

[2] = test system: wild-type E. coli; assay: Growth inhibition of bacterial cell cultures; type: cell-based; conditions: for IC50: Escherichia coli, read-out: IC50 (inhibit the growth by half); for IC50/IC50(puro): wild-type E. coli, IC50(puro) = concentration causing 50% inhibition in peptide-bond formation at 2 mM puromycin
Method: (§1) S. aureus or E. coli cells (400 μl of a 0.700 OD560 preculture) containing wild-type or mutant ribosomes were added in 3.6 ml of LB (Luria Broth) medium and grown at 37°C in the presence or absence of CAM or PA–CAM conjugates until the optical density of the control culture (grown in the absence of drug) reached the value 0.700 at 560 nm. From the growth curves, the IC50 value for each strain was estimated as the concentration of the drug that is required to inhibit the growth by half.

[3] = test system: wild-type S. aureus; assay: Growth inhibition of bacterial cell cultures; type: cell-based; conditions: Staphylococcus aureus, read-out: IC50 (inhibit the growth by half)
Method: as §1

[4] = test system: E. coli (A2058G) TA531 cells with pKK35 plasmid, mutated 23S rRNA; assay: Growth inhibition of bacterial cell cultures, CAM-resistant mutant; type: cell-based; conditions: Escherichia coli, read-out: IC50 (inhibit the growth by half)
Source text: (§2) CAM free base [D-(-)threo-1-(p-nitrophenyl)-2-amino-1,3-propanediol], puromycin dihydrochloride, tRNA^Phe from E. coli, dimethyl sulfate (DMS), DMS stop solution and tRNA^Phe from E. coli were purchased from Sigma-Aldrich. Kethoxal and 1-cyclohexyl-3-(2-morpholinoethyl)-carbodiimide metho-p-toluene sulfate (CMCT) were from MP Biomedicals and Fluka Biochemicals, respectively. AMV reverse transcriptase was supplied by Roche, dNTPs by HT Biotechnology, and ddNTPs by Jena Bioscience. L-[2,3,4,5,6 -^3H]Phenylalanine was from Amersham Biosciences and [α-^32P]ATP from Izotop. Cellulose nitrate filters (type HA; 0.45 μm pore size) were from Millipore Corp. Details in experimental procedures of synthesis and physical and spectra data for the synthesized compounds will be published elsewhere. […] The mesothelioma cell line ZL34 and its immortalized counterpart cell line Met5A, were kindly provided by Prof. G. Stathopoulos (University of Patras).
as §1

[5] = test system: E. coli (A2503C) TA531 cells with pKK35 plasmid, mutated 23S rRNA; assay: as above; type: cell-based; conditions: Escherichia coli, read-out: IC50 (inhibit the growth by half)
Source text: as §2, §1

[6] = test system: central loop of Domain V of 23S rRNA, E. coli ribosomes; assay: Time-resolved footprinting of PA–CAM conjugates bound to ribosomes (DMS, kethoxal, CMCT probing, primer extension); type: binding
Method: Complexes RI and R*I were then probed at 37°C for 10 min with DMS, kethoxal or CMCT, as described previously ([30]). The modified sites in 23S rRNA were then analyzed by primer extension with reverse transcriptase, according to Moazed et al. ([30]). […] Extension products were run on 6% polyacrylamide/7M urea gels. Identification of the modified nucleotides, quantitative scanning of the gels and normalization of the band intensities were made as previously described ([4]). The values indicated in Table 2 denote the ratio between the normalized intensity of a band of interest and the normalized intensity of the corresponding band in the control lane (ribosomes non-treated with drugs).

[7] = early phase of the reaction (encounter complex CI)
[8] = late phase of the reaction (complex C*I)
[9] = R*I binding state (3 min), conjugate at 50 × Ki, 25°C, ratio to control lane R
[10] = RI binding state (2 s), conjugate at 50 × Ki, 25°C, ratio to control lane R

Compound | Ki [1, 7] | koff [1] | Ki [1, 8] | potency relative to CAM, based on Kik7/(k6 + k7) [1] | IC50 [2] | IC50/IC50(puro) [2] | IC50 [3] | IC50 [4] | IC50 [5] | further results
NCCCCNC(=O)CCC(=O)N[C@H](CO)[C@H](O)c1ccc([N+](=O)[O-])cc1 [Compound 1] | 3.37 ± 0.3 µM | 0.0175 ± 0.00167 s⁻¹ | 0.9 ± 0.06 µM | equal | > 200 µM | >37.0 | > 200 µM | > 200 µM | > 200 µM | –
NCCCNCCCCNCCCNC(=O)CCC(=O)N[C@H](CO)[C@H](O)c1ccc([N+](=O)[O-])cc1 [Compound 2] | 2.2 ± 0.2 µM | 0.0198 ± 0.00267 s⁻¹ | 0.75 ± 0.06 µM | equal | > 100 µM | >22.2 | 45.3 ± 5.5 µM | > 100 µM | > 100 µM | –
NCCCCN(CCCN)C(=O)CCC(=O)N[C@H](CO)[C@H](O)c1ccc([N+](=O)[O-])cc1 [Compound 3] | 3.6 ± 0.3 µM | 0.021 ± 0.00217 s⁻¹ | 1.2 ± 0.1 µM | lower potency | > 150 µM | >20.8 | 12.7 ± 1 µM | > 150 µM | > 150 µM | protection of U2585 against CMCT (footprinting) ([6]; 2 s or 3 min incubation, Supplementary Figure S6): fails to detect a similar protection
O=C(CCC(=O)N[C@H](CO)[C@H](O)c1ccc([N+](=O)[O-])cc1)NCCCNCCCCN(Cc1ccccc1)Cc1ccccc1 [Compound 5] | 2.1 ± 0.17 µM | 0.0148 ± 0.0013 s⁻¹ | 0.6 ± 0.05 µM | 1.5 fold | – | 9.86 ± 1.29 | 13.7 ± 1.2 µM | 32.3 ± 3 µM | 37.1 ± 3.1 µM | Relative reactivity of nucleoside A2058 [6, 9]: 0.95 ± 0.08; Relative reactivity of nucleoside A2059 [6, 9]: 1.00 ± 0.08; Relative reactivity of nucleoside A2062 [6, 9]: 1.00 ± 0.09; Relative reactivity of nucleoside A2451 [6, 9]: 0.70 ± 0.05^b; Relative reactivity of nucleoside A2602 [6, 9]: 0.89 ± 0.07; Relative reactivity of nucleoside G2505 [6, 9]: 0.50 ± 0.15^b,c; Relative reactivity of nucleoside U2506 [6, 9]: 0.70 ± 0.06^b; Relative reactivity of nucleoside U2609 [6, 9]: 0.90 ± 0.08; Relative reactivity of nucleoside A2058 [6, 10]: 1.10 ± 0.09; Relative reactivity of nucleoside A2059 [6, 10]: 0.90 ± 0.08; Relative reactivity of nucleoside A2062 [6, 10]: 1.00 ± 0.06; Relative reactivity of nucleoside A2451 [6, 10]: 0.65 ± 0.04^b; Relative reactivity of nucleoside A2602 [6, 10]: 1.00 ± 0.06; Relative reactivity of nucleoside G2505 [6, 10]: 0.74 ± 0.06^b; Relative reactivity of nucleoside U2506 [6, 10]: 0.75 ± 0.05^b; Relative reactivity of nucleoside U2585 [6, 10]: 0.92 ± 0.10; Relative reactivity of nucleoside U2609 [6, 10]: 1.00 ± 0.10; IC50 ([2]; WT-E. coli, LB medium, 37°C): 35.5 ± 3.6 µM
NCCCCNC(=O)c1ccccc1C(=O)N[C@H](CO)[C@H](O)c1ccc([N+](=O)[O-])cc1 [Compound 6] | 214 ± 17.1 µM | 0.0125 ± 0.001 s⁻¹ | 8.45 ± 0.67 µM | lower potency | > 200 µM | – | > 200 µM | > 200 µM | > 200 µM | –
O=C(N[C@H](CO)[C@H](O)c1ccc([N+](=O)[O-])cc1)c1nc[nH]n1 [Compound 8] | 3 ± 0.3 µM | 0.0183 ± 0.002 s⁻¹ | 1 ± 0.1 µM | equal | > 300 µM | >50 | > 100 µM | > 300 µM | > 300 µM | –
O=C(CCNC(=O)c1nc[nH]n1)N[C@H](CO)[C@H](O)c1ccc([N+](=O)[O-])cc1 [Compound 9] | 12 ± 1.08 µM | 0.014 ± 0.0013 s⁻¹ | 4 ± 0.44 µM | lower potency | > 200 µM | >8.3 | 66 ± 4.6 µM | > 200 µM | > 200 µM | –
